Where “and” joins values, the source holds several entries; their conditions need not be identical. Identical values can stand only once.
Legend:
Assay in all cases: radiometric filter-binding kinase assay, Kinase HotSpot
Conditions in all cases: compound 0.5 µM; ATP 10 µM
ACVR1B (human) = ACVR1B (human) (UniProt P36896)
CAMK1 (human) = CAMK1 (human) (UniProt Q14012)
CAMK2D (human) = CAMK2D (human) (UniProt Q13557)
CDC42BPA (human) = CDC42BPA (human) (UniProt Q5VT25)
CDK7 CCNH MNAT1 (human) = CDK7 CCNH MNAT1 (human) (UniProt P50613+P51948+P51946)
CDK9 CCNK (human) = CDK9 CCNK (human) (UniProt O75909+P50750)
CDK9 CCNT1 (human) = CDK9 CCNT1 (human) (UniProt P50750+O60563)
CSK (human) = CSK (human) (UniProt P41240)
CSNK1G3 (human) = CSNK1G3 (human) (UniProt Q9Y6M4)
DAPK1 (human) = DAPK1 (human) (UniProt P53355)
DMPK (human) = DMPK (human) (UniProt Q09013)
Sequence of DMPK (human) (Q09013 whole entry, looked up): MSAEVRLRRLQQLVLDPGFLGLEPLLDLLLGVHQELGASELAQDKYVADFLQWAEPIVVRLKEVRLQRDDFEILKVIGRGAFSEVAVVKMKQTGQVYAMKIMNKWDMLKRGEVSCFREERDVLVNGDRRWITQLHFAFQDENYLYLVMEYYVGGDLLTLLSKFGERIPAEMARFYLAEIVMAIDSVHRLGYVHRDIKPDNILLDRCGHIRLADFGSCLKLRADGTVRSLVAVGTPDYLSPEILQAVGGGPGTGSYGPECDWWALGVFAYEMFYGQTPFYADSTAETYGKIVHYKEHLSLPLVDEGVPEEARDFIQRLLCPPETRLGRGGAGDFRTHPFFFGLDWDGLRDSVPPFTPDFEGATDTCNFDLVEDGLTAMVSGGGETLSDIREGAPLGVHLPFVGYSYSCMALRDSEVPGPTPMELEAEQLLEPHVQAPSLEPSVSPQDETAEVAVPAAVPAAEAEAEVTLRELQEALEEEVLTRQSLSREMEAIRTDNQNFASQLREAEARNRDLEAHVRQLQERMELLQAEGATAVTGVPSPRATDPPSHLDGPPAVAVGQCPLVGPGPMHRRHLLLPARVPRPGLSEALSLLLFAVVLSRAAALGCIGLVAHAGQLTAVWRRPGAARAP

DYRK2 (human) = DYRK2 (human) (UniProt Q92630)
EPHA4 (human) = EPHA4 (human) (UniProt P54764)
FGFR3 (human) = FGFR3 (human) (UniProt P22607)
GSK3A (human) = GSK3A (human) (UniProt P49840)
[1] = molecular target: JAK1 JH1 catalytic (human) (UniProt P23458)
LCK (human) = LCK (human) (UniProt P06239)
LYN (human) = LYN (human) (UniProt P07948)
Sequence of LYN (human) (P07948 whole entry, looked up): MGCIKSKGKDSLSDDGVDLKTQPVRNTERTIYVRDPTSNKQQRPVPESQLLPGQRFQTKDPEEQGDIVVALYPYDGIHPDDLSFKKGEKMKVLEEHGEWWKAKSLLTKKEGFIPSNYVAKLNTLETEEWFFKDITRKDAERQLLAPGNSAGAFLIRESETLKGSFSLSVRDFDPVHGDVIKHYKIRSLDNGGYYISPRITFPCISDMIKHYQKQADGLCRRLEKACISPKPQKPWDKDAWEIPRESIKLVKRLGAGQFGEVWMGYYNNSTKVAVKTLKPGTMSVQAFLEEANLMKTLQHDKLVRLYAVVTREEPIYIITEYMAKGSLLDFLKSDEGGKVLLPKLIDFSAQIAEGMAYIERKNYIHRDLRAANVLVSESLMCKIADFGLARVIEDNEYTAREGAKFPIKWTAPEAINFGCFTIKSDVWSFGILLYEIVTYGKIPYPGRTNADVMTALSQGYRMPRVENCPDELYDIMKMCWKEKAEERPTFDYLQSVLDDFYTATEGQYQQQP

MAP3K14 (human) = MAP3K14 (human) (UniProt Q99558)
MAP3K8 (human) = MAP3K8 (human) (UniProt P41279)
Sequence of MAP3K8 (human) (P41279 whole entry, looked up): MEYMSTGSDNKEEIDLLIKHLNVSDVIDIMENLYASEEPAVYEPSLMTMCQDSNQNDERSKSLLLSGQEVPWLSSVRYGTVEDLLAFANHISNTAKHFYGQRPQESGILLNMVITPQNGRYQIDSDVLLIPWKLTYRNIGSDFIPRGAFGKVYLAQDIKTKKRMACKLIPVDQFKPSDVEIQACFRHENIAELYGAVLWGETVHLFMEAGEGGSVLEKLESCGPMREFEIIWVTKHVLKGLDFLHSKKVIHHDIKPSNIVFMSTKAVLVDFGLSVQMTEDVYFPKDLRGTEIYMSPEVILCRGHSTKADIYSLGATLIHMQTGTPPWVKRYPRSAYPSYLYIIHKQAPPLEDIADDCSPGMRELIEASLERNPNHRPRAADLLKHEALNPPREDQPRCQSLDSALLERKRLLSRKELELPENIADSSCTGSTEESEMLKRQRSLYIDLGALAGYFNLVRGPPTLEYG

MAPKAPK5 (human) = MAPKAPK5 (human) (UniProt Q8IW41)
MARK1 (human) = MARK1 (human) (UniProt Q9P0L2)
MERTK (human) = MERTK (human) (UniProt Q12866)
NTRK3 (human) = NTRK3 (human) (UniProt Q16288)
NUAK1 (human) = NUAK1 (human) (UniProt O60285)
NUAK2 (human) = NUAK2 (human) (UniProt Q9H093)
PAK2 (human) = PAK2 (human) (UniProt Q13177)
PAK3 (human) = PAK3 (human) (UniProt O75914)
PDGFRA (human) = PDGFRA (human) (UniProt P16234)
PHKG1 (human) = PHKG1 (human) (UniProt Q16816)
PKN1 (human) = PKN1 (human) (UniProt Q16512)
PNCK (human) = PNCK (human) (UniProt Q6P2M8)
PRKACA (human) = PRKACA (human) (UniProt P17612)
PRKCH (human) = PRKCH (human) (UniProt P24723)
PTK2 (human) = PTK2 (human) (UniProt Q05397)
Sequence of PTK2 (human) (Q05397 whole entry, looked up): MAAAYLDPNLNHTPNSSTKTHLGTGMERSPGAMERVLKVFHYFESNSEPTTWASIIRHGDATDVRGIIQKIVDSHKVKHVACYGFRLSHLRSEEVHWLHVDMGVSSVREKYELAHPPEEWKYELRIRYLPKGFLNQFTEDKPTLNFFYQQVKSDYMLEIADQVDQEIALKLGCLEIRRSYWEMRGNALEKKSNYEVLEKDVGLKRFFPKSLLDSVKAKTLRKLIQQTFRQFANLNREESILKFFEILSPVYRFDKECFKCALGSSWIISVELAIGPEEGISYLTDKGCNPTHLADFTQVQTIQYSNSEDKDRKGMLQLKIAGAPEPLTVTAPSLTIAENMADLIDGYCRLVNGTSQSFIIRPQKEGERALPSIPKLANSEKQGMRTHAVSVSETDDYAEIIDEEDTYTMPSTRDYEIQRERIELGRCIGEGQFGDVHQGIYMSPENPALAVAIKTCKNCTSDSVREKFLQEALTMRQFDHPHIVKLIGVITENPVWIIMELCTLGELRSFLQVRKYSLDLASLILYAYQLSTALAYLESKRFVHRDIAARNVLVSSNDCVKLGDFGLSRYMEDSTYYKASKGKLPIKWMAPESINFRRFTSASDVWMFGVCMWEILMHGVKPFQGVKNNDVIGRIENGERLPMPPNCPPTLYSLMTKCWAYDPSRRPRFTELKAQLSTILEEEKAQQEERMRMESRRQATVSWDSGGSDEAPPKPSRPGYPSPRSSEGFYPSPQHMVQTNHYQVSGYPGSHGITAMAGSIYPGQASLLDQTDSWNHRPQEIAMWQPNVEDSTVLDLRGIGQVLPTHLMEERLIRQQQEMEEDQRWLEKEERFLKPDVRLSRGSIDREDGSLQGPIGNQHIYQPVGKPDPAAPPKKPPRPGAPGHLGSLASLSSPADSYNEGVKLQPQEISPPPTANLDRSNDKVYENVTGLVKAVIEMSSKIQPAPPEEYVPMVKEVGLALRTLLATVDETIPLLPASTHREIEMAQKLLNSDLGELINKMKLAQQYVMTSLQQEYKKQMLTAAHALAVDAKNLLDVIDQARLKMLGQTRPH

PTK2B (human) = PTK2B (human) (UniProt Q14289)
Sequence of PTK2B (human) (Q14289 whole entry, looked up): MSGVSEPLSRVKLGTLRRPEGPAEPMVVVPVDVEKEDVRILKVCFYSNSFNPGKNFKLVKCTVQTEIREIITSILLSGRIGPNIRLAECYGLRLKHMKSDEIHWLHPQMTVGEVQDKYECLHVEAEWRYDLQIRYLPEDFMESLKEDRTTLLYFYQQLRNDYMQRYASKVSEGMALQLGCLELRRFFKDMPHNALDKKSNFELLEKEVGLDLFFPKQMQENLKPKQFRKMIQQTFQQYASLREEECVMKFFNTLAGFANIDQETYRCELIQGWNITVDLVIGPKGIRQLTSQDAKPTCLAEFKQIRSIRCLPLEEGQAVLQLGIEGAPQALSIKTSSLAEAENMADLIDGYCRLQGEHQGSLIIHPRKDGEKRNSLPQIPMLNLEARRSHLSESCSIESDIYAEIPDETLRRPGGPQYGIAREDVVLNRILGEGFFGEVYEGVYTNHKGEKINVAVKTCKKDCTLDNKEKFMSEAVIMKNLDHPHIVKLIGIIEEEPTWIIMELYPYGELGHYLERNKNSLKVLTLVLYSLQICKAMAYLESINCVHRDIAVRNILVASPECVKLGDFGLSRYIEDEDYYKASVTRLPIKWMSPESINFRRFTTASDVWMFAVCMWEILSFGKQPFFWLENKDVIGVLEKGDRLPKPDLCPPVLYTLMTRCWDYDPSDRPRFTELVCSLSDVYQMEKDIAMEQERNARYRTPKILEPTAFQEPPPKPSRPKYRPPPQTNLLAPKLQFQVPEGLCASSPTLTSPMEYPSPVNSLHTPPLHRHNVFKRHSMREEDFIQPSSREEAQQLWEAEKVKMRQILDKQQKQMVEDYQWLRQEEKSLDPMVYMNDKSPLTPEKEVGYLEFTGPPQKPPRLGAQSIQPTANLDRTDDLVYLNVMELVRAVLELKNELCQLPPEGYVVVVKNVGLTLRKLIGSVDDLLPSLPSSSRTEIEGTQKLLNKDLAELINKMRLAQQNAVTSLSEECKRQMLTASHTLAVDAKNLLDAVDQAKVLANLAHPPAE

SRPK3 (human) = SRPK3 (human) (UniProt Q9UPE1)
STK3 (human) = STK3 (human) (UniProt Q13188)
TEC (human) = TEC (human) (UniProt P42680)
TSSK2 (human) = TSSK2 (human) (UniProt Q96PF2)
WEE1 (human) = WEE1 (human) (UniProt P30291)
FLT1 (human) = FLT1 (human) (UniProt P17948)

Sequence of CAMK2D (human) (Q13557 whole entry, looked up): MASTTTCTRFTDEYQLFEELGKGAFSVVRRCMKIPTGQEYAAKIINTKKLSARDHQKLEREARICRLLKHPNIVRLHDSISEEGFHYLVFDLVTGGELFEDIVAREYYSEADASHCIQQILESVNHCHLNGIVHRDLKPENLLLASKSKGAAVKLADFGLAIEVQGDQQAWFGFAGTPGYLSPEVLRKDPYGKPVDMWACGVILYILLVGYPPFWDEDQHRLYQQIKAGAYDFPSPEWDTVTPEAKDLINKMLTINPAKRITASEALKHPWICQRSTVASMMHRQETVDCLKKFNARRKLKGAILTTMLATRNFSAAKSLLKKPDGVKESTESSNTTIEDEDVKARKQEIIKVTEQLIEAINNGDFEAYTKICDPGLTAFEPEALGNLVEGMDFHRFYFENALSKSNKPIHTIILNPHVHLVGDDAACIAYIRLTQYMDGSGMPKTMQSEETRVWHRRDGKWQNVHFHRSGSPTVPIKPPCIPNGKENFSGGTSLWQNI
Sequence of ACVR1B (human) (P36896 whole entry, looked up): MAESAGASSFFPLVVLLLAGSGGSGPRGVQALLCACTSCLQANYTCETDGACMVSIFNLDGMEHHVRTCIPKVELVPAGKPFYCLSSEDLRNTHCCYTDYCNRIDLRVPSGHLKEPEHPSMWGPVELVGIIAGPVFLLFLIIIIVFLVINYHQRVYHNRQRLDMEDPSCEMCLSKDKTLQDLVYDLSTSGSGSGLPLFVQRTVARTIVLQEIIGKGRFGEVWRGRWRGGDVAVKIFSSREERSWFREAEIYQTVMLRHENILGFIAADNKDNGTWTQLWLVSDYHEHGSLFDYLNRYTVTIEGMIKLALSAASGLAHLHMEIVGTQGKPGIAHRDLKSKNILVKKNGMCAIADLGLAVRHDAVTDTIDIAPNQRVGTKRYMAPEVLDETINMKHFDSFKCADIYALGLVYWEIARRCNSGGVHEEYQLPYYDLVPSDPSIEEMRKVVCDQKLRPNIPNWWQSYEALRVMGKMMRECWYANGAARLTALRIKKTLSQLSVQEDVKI
Sequence of CAMK1 (human) (Q14012 whole entry, looked up): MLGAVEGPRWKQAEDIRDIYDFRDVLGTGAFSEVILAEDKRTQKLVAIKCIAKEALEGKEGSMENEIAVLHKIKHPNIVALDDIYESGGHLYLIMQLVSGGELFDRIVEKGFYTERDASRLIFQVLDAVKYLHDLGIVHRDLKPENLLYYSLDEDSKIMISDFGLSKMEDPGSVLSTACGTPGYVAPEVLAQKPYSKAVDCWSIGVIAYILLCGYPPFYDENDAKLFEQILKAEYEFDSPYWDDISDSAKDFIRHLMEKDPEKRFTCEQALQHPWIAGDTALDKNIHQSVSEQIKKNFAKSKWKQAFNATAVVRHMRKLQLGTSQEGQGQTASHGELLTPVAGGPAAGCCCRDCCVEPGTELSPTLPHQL

Clc1ccc(Nc2nnc(Cc3ccncc3)c3ccccc23)cc1
residual activity (ACVR1B (human)): 108% | residual activity (CAMK1 (human)): 100% | residual activity (CAMK2D (human)): 81.1% | residual activity (CDC42BPA (human)): 78.3% | residual activity (CDK7 CCNH MNAT1 (human)): 107% | residual activity (CDK9 CCNK (human)): 104% | residual activity (CDK9 CCNT1 (human)): 94.9% | residual activity (CSK (human)): 87.6% | residual activity (CSNK1G3 (human)): 100% | residual activity (DAPK1 (human)): 105% | residual activity (DMPK (human)): 102% | residual activity (DYRK2 (human)): 103% | residual activity (EPHA4 (human)): 102% | residual activity (FGFR3 (human)): 91.5% | residual activity (GSK3A (human)): 103% | residual activity [1]: 107% | residual activity (LCK (human)): 87% | residual activity (LYN (human)): 110% and 91.8% | residual activity (MAP3K14 (human)): 126% | residual activity (MAP3K8 (human)): 98.2% | residual activity (MAPKAPK5 (human)): 97.8% | residual activity (MARK1 (human)): 124% | residual activity (MERTK (human)): 116% | residual activity (NTRK3 (human)): 92.7% | residual activity (NUAK1 (human)): 112% | residual activity (NUAK2 (human)): 105% | residual activity (PAK2 (human)): 101% | residual activity (PAK3 (human)): 107% | residual activity (PDGFRA (human)): 33.3% | residual activity (PHKG1 (human)): 94.2% | residual activity (PKN1 (human)): 95.9% | residual activity (PNCK (human)): 103% | residual activity (PRKACA (human)): 98.1% | residual activity (PRKCH (human)): 105% | residual activity (PTK2 (human)): 101% | residual activity (PTK2B (human)): 102% | residual activity (SRPK3 (human)): 104% | residual activity (STK3 (human)): 92.1% | residual activity (TEC (human)): 137% | residual activity (TSSK2 (human)): 82.8% | residual activity (WEE1 (human)): 109%

CCN1/C(=C/C(C)=O)Sc2ccc(OC)cc21
residual activity (ACVR1B (human)): 109% | residual activity (CAMK1 (human)): 88.5% | residual activity (CAMK2D (human)): 92.2% | residual activity (CDC42BPA (human)): 85% | residual activity (CDK7 CCNH MNAT1 (human)): 94.8% | residual activity (CDK9 CCNK (human)): 86.2% | residual activity (CDK9 CCNT1 (human)): 101% | residual activity (CSK (human)): 104% | residual activity (DAPK1 (human)): 109% | residual activity (DMPK (human)): 101% | residual activity (DYRK2 (human)): 19.5% | residual activity (EPHA4 (human)): 95.5% | residual activity (FGFR3 (human)): 99.1% | residual activity (FLT1 (human)): 88.4% | residual activity (GSK3A (human)): 85.7% | residual activity [1]: 98.9% | residual activity (LCK (human)): 99.4% | residual activity (LYN (human)): 101% and 94.4% | residual activity (MAP3K14 (human)): 86.1% | residual activity (MAP3K8 (human)): 103% | residual activity (MAPKAPK5 (human)): 112% | residual activity (MARK1 (human)): 91% | residual activity (MERTK (human)): 88.6% | residual activity (NTRK3 (human)): 91.9% | residual activity (NUAK1 (human)): 93.4% | residual activity (NUAK2 (human)): 107% | residual activity (PAK2 (human)): 105% | residual activity (PAK3 (human)): 96.3% | residual activity (PDGFRA (human)): 105% | residual activity (PHKG1 (human)): 89.5% | residual activity (PKN1 (human)): 100% | residual activity (PNCK (human)): 101% | residual activity (PRKACA (human)): 98% | residual activity (PRKCH (human)): 88.1% | residual activity (PTK2 (human)): 108% | residual activity (PTK2B (human)): 97.8% | residual activity (SRPK3 (human)): 95% | residual activity (TEC (human)): 116% | residual activity (TSSK2 (human)): 106% | residual activity (WEE1 (human)): 102%

Source: the kinase profiling compilation of Christmann-Franck et al. (2016)
